Some test systems named below: SK-MEL-28; KM12; MCF7; NCI-H460; SNB-19; SW-620; PC-3; MOLT-4; LOX IMVI; HCC 2998; U-251; UO-31; EKVX; NCI-H522; RPMI-8226; Malme-3M; HOP-62; HCT-15; NCI-H23.
Holding throughout (assay): DTP human tumour cell line panel, 48 h

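Following 48 hours of exposure in 96-well plates, responses at five concentrations were used to interpolate endpoints linearly. Abbreviation: GI50, concentration required for 50% inhibition of growth.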 Active and inactive are the calls of the source. No stated cut-off is given here; in the data, active = GI50 up to about 1.1 µM and inactive = higher.

`Cc1ccc(C(=O)NC2C(=O)NC(C(C)C)C(=O)N3CCCC3C(=O)N(C)CC(=O)N(C)C(C(C)C)C(=O)OC2C)c2c1Oc1c(c(C(=O)NC3C(=O)NC(C(C)C)C(=O)N4CCCC4C(=O)N(C)CC(=O)N(C)C(C(C)C)C(=O)OC3C)c3nc(-c4ccccc4)c(=O)oc3c1C)N2` (centres undefined): the GI50 – broadly, the concentration that inhibits growth by half – was < 0.001 µM (active) in the experiment on SK-MEL-28; < 0.001 µM (active) in the experiment with KM12; < 0.001 µM (active) in the experiment on MCF7; < 0.001 µM (active) in the experiment on NCI-H460; < 0.001 µM (active) in the experiment with SNB-19; 0.004 µM (active) with SW-620. In addition, the GI50 is 0.00219 µM (active) with PC-3; 0.00222 µM (active) in the experiment with MOLT-4; < 0.001 µM (active) with LOX IMVI; < 0.001 µM (active) in the experiment with HCC 2998; < 0.001 µM (active) with U-251; 0.0103 µM (active) with UO-31. The GI50 is 0.00705 µM (active) with EKVX; 0.0024 µM (active) with NCI-H522; 0.00147 µM (active) in the experiment with RPMI-8226; 0.00361 µM (active) with Malme-3M; < 0.001 µM (active) in the experiment on HOP-62; 0.0377 µM with HCT-15. Moreover, the GI50 with NCI-H23 was 0.00167 µM (active).

As for `COc1cc2oc(=O)cc(C)c2cc1[N+](=O)[O-]`, the GI50 with SK-MEL-28 is 22.6 µM (inactive); with KM12, 25.7 µM (inactive); with MCF7 it was 25.5 µM (inactive); in the experiment with NCI-H460, 46.3 µM (inactive); in the experiment on SNB-19, > 83.6 µM (inactive); in the experiment with SW-620 it was 23 µM (inactive). Further, the GI50 in the experiment on PC-3 was 27.9 µM (inactive); with MOLT-4, 13.7 µM (inactive); in the experiment with LOX IMVI, 12.2 µM (inactive); with HCC 2998, 14.6 µM (inactive); in the experiment on U-251, 37.4 µM (inactive); in the experiment on UO-31, 34.4 µM (inactive). The GI50 with EKVX is > 59.4 µM (inactive); in the experiment with NCI-H522, 11.6 µM (inactive); with RPMI-8226 it was 27 µM (inactive); with Malme-3M, 20.1 µM (inactive); in the experiment on HOP-62, 41.6 µM (inactive); with HCT-15 it was 17.7 µM. Also, in the experiment with NCI-H23, the GI50 is 21.3 µM (inactive).

In the case of `C=C1OC2OC(C)C(NC(=O)OCC(Cl)(Cl)Cl)C(OC(C)=O)C2O1` (centres undefined), the GI50 in the experiment with SK-MEL-28, with KM12, in the experiment on MCF7, with NCI-H460, in the experiment with SNB-19 and in the experiment on SW-620 was > 100 µM (inactive) throughout. In addition, the GI50 with PC-3, in the experiment with MOLT-4, with LOX IMVI, in the experiment on HCC 2998, in the experiment with U-251 and with UO-31 was > 100 µM (inactive) each time. Moreover, the GI50 is > 100 µM (inactive) in the experiment with EKVX; > 100 µM (inactive) in the experiment with NCI-H522; > 100 µM (inactive) in the experiment on RPMI-8226; > 100 µM (inactive) in the experiment with Malme-3M; > 100 µM (inactive) in the experiment on HOP-62; over 100 µM in the experiment with HCT-15. Moreover, in the experiment with NCI-H23, the GI50 was > 100 µM (inactive).

For the compound `CCOC(=O)c1ccc(Nc2nc3ccc(C(F)(F)F)cc3nc2-c2ccccc2)cc1`, the GI50 in the experiment with SK-MEL-28, in the experiment with KM12, with MCF7, in the experiment with NCI-H460, in the experiment on SNB-19 and with SW-620 was > 100 µM (inactive) throughout. The GI50 was 38 µM (inactive) in the experiment with PC-3; 38.1 µM (inactive) with MOLT-4; > 100 µM (inactive) in the experiment with LOX IMVI; 84.1 µM (inactive) in the experiment with HCC 2998; 53 µM (inactive) with U-251; > 100 µM (inactive) in the experiment on UO-31. For the same compound, the GI50 in the experiment with EKVX is > 100 µM (inactive); in the experiment on NCI-H522, 47.9 µM (inactive); in the experiment on RPMI-8226, > 100 µM (inactive); in the experiment with Malme-3M, > 100 µM (inactive); in the experiment with HOP-62, 80 µM (inactive); in the experiment with HCT-15, 15.4 µM. In addition, in the experiment with NCI-H23, the GI50 was > 100 µM (inactive).

Consider `N#Cc1c(Nc2ccccc2)[n+]([O-])c2ccc(Cl)cc2[n+]1[O-]`, for which the GI50 in the experiment with SK-MEL-28 is 12.9 µM (inactive); in the experiment with KM12, 4.36 µM (inactive); in the experiment on MCF7, 3.64 µM (inactive); in the experiment on NCI-H460, 2.42 µM (inactive); in the experiment on SNB-19, 5.51 µM (inactive); with SW-620, 4.63 µM (inactive). Also, the GI50 in the experiment on PC-3 was 3.36 µM (inactive); in the experiment on MOLT-4 it was 3.65 µM (inactive); in the experiment on LOX IMVI, 3.1 µM (inactive); in the experiment on HCC 2998 it was 4.06 µM (inactive); in the experiment on U-251, 3.15 µM (inactive); with UO-31, 2.89 µM (inactive). In addition, the GI50 with EKVX was 4.3 µM (inactive); in the experiment with NCI-H522 it was 2.16 µM (inactive); in the experiment with RPMI-8226 it was 3.28 µM (inactive); in the experiment with Malme-3M, 7.59 µM (inactive); in the experiment on HOP-62, 7.67 µM (inactive); with HCT-15 it was 1.89 µM. For the same compound, in the experiment on NCI-H23, the GI50 was 5.08 µM (inactive).

With `CN(C)Cc1cc(C(C)(C)C)cc(CNC2CCCCC2)c1O`, the GI50 in the experiment with SK-MEL-28 is 33.3 µM (inactive); in the experiment with KM12, 30.4 µM (inactive); in the experiment on MCF7 it was 29.4 µM (inactive); in the experiment on NCI-H460 it was 20.4 µM (inactive); in the experiment with SNB-19, > 100 µM (inactive); with SW-620, 33.5 µM (inactive). Further, the GI50 was 24.6 µM (inactive) in the experiment on PC-3; 12.3 µM (inactive) with MOLT-4; 22.1 µM (inactive) in the experiment on LOX IMVI; 11.6 µM (inactive) with HCC 2998; 45 µM (inactive) in the experiment on U-251; 15.6 µM (inactive) with UO-31. Moreover, the GI50 is 15.8 µM (inactive) in the experiment with EKVX; 24.2 µM (inactive) in the experiment on NCI-H522; 16.7 µM (inactive) in the experiment on RPMI-8226; 25.6 µM (inactive) in the experiment with Malme-3M; 41.2 µM (inactive) in the experiment on HOP-62; 28.8 µM with HCT-15. Also, the GI50 with NCI-H23 is 69.7 µM (inactive).

As for `COC(=O)/C=C(/C(=O)OC)c1cc2ccc3c([nH]c4ccccc43)c(C)c-2c1`, the GI50 is 5.55 µM (inactive) with SK-MEL-28; 3.73 µM (inactive) in the experiment on KM12; 2.79 µM (inactive) with MCF7; 4.45 µM (inactive) in the experiment on NCI-H460; 9.29 µM (inactive) in the experiment on SNB-19; 4.93 µM (inactive) in the experiment with SW-620. Further, the GI50 is 2.68 µM (inactive) in the experiment with PC-3; 3.13 µM (inactive) in the experiment with MOLT-4; 3.66 µM (inactive) in the experiment on LOX IMVI; 3.92 µM (inactive) in the experiment with HCC 2998; 3.85 µM (inactive) in the experiment on U-251; 3.79 µM (inactive) with UO-31. Also, the GI50 is 3.76 µM (inactive) in the experiment with EKVX; 2.54 µM (inactive) with NCI-H522; 3.72 µM (inactive) in the experiment with RPMI-8226; 5.21 µM (inactive) in the experiment with Malme-3M; 12.1 µM (inactive) with HOP-62; 3.94 µM in the experiment with HCT-15. Moreover, the GI50 in the experiment on NCI-H23 is 3.96 µM (inactive).

On to `C/C(=C\CO)CC[C@@H]1[C@@]2(C)CCCC(C)(C)[C@@H]2CC[C@@]1(C)O`, for which the GI50 in the experiment on SK-MEL-28 is 22.3 µM (inactive); in the experiment on KM12, 19.2 µM (inactive); in the experiment with MCF7, 17.1 µM (inactive); in the experiment on NCI-H460, 17.3 µM (inactive); with SNB-19, 21.3 µM (inactive); in the experiment on SW-620, 22.7 µM (inactive). The GI50 is 16.4 µM (inactive) in the experiment with PC-3; 51.8 µM (inactive) in the experiment on MOLT-4; 16.1 µM (inactive) in the experiment with LOX IMVI; 16 µM (inactive) in the experiment with HCC 2998; 17.3 µM (inactive) in the experiment with U-251; 23.4 µM (inactive) with UO-31. The GI50 with EKVX was 24.8 µM (inactive); in the experiment on NCI-H522, 16.7 µM (inactive); with RPMI-8226, 17.2 µM (inactive); with Malme-3M it was 19.7 µM (inactive); with HCT-15, 17.3 µM; in the experiment on NCI-H23, 20.5 µM (inactive).

For `Cc1ccc(NC(=O)c2cc(S(=O)(=O)N3CCNNC3=O)c(S)cc2Cl)cc1`, the GI50 with SK-MEL-28, in the experiment on KM12, in the experiment with MCF7, in the experiment on NCI-H460, with SNB-19 and with SW-620 was > 100 µM (inactive) throughout. Besides, the GI50 in the experiment with PC-3, with MOLT-4, in the experiment on LOX IMVI, in the experiment on HCC 2998, with U-251 and in the experiment with UO-31 was > 100 µM (inactive) in each case. Besides, the GI50 is > 100 µM (inactive) with EKVX; 26.5 µM (inactive) with NCI-H522; 28.2 µM (inactive) with RPMI-8226; > 100 µM (inactive) in the experiment on Malme-3M; over 100 µM in the experiment on HCT-15.

As for `COc1ccc(-c2cc3c(nn2)-c2ccccc2C3=O)cc1`, the GI50 is > 10 µM (inactive) in the experiment with SK-MEL-28; > 10 µM (inactive) in the experiment with KM12; 8.93 µM (inactive) with MCF7; > 10 µM (inactive) in the experiment on NCI-H460; > 10 µM (inactive) in the experiment on SNB-19; > 10 µM (inactive) with SW-620. In addition, the GI50 in the experiment with PC-3, with LOX IMVI, in the experiment with HCC 2998, with U-251, with UO-31 and with EKVX was > 10 µM (inactive) in each case. Further, the GI50 in the experiment on NCI-H522 is > 10 µM (inactive); in the experiment with RPMI-8226, > 10 µM (inactive); with Malme-3M it was > 10 µM (inactive); in the experiment on HOP-62, > 10 µM (inactive); in the experiment on HCT-15, over 10 µM; in the experiment on NCI-H23, > 10 µM (inactive).

With `Cc1cc2c(cc1Cl)S(=O)(=O)OC(c1ccc([N+](=O)[O-])cc1)=N2`, the GI50 in the experiment on SK-MEL-28, with KM12, with MCF7, in the experiment on NCI-H460, with SNB-19 and in the experiment with SW-620 was > 100 µM (inactive) throughout. The GI50 in the experiment on PC-3, in the experiment with MOLT-4, in the experiment on LOX IMVI, with HCC 2998, in the experiment with U-251 and in the experiment on UO-31 was > 100 µM (inactive) in each case. Also, the GI50 in the experiment with EKVX is > 100 µM (inactive); with NCI-H522, > 100 µM (inactive); with RPMI-8226, > 100 µM (inactive); in the experiment on Malme-3M, > 100 µM (inactive); in the experiment on HOP-62, > 100 µM (inactive); in the experiment with HCT-15, over 100 µM.

The values are drawn from ChEMBL document CHEMBL1201862, “PubChem BioAssay data set” (2004).
